Values quoted from earlier work as cited in patent US20130039858A1, “NIR MATERIALS AND NANOMATERIALS FOR THERANOSTIC APPLICATIONS” (University of Florida Research Foundation, Inc., priority 2010, published 2013).

Conditions: in H2O

CC1(C)C(/C=C/C=C/C=C/C=C2\N(CCCCS(=O)(=O)O)c3ccc4ccccc4c3C2(C)C)=[N+](CCCCS(=O)(=O)[O-])c2ccc3ccccc3c21 [ICG, indocyanine green]
critical micelle concentration: about 0.32 mg/mL
